Patent US8952036B2, “Benzoic acid derivative MDM2 inhibitor for the treatment of cancer” (Amgen Inc., priority 2013, dated 2015)
“Also recorded” adds a separate entry of the source. Where two headings read alike, the source gives them in different places.

Tests used:
CYP1A2, CYP2B6 or CYP3A4 = experiment: Human Hepatocyte CYP1A2, CYP2B6, and CYP3A4 Induction Assay (summary); type: in vitro ADME; settings: human hepatocytes, mRNA
Excerpt: (§1) Human Hepatocyte CYP1A2, CYP2B6, and CYP3A4 Induction Assay
(§2) Materials. […] Insulin-transferrin-selenium supplement (ITS), penicillin-streptomycin-L-glutamine supplement (PSG), fetal bovine serum (FBS), phosphate-buffered saline (PBS), cryopreserved hepatocyte recovery medium (CHRM), and three individual-donor lots of cryopreserved adult human hepatocytes were obtained from Life Technologies (Grand Island, N.Y.). Collagen I-precoated 24-well plates and hydroxybupropion were acquired from Becton Dickinson Labware (Bedford, Mass.). Branched DNA (b-DNA) probe sets for human CYP1A2, CYP2B6, CYP3A4, and 18S rRNA and the Panomics Discovery XL Kit were purchased from Affymetrix Inc. (Santa Clara, Calif.).
In vitro Methods. […] Individual lots were plated in collagen-coated 24-well plates with approximately 0.38×10^6 cells/well. […] After the attachment period, the plating medium and unattached cells were removed by aspiration and 37° C. HMM was added to each well (0.5 mL/well), and the cells were incubated overnight. On Day 2, the medium was aspirated and fresh 37° C. HMM was reapplied to the cells for an overnight acclimation period. […] The Example compounds to be tested were prepared in DMSO stock solutions resulting in final incubation concentrations of 0.1% DMSO. Example compound treatment was maintained for a total of 48 hours. […] P450 enzyme activities were subsequently determined by the addition of marker substrates phenacetin (100 μM, CYP1A2 probe substrate, 30-minute incubation) bupropion hydrochloride (100 μM, CYP2B6 probe substrate, 20-minute incubation), and testosterone (200 μM, CYP3A4 probe substrate, 14-minute incubation) which were dissolved in KHB (37° C., pH 7.4, 0.5 mL/well). After the substrate incubation periods, the buffers were collected and stored at −80° C. until analyzed. […]
(§3) Data Reporting. For each P450 isoform for mRNA analysis, fold increases over vehicle control (with vehicle control set to 1.0) were calculated for positive controls and each treatment group for the Example compounds.

CYP3A4 = settings: human, 48 h; for CYP3A4 mRNA induction: hepatocytes
Excerpt: as §1, §2
In vitro Methods. […] Individual lots were plated in collagen-coated 24-well plates with approximately 0.38×10^6 cells/well. […] After the attachment period, the plating medium and unattached cells were removed by aspiration and 37° C. HMM was added to each well (0.5 mL/well), and the cells were incubated overnight. On Day 2, the medium was aspirated and fresh 37° C. HMM was reapplied to the cells for an overnight acclimation period. […] The Example compounds to be tested were prepared in DMSO stock solutions resulting in final incubation concentrations of 0.1% DMSO. Example compound treatment was maintained for a total of 48 hours. On Day 5, the medium was aspirated, and the hepatocytes were gently washed one time with KHB (37° C., pH 7.4). The KHB was removed, and a second application of KHB was administered (0.5 mL/well). The hepatocytes were placed back into the incubator and allowed to acclimate to the KHB for 10 minutes. P450 enzyme activities were subsequently determined by the addition of marker substrates phenacetin (100 μM, CYP1A2 probe substrate, 30-minute incubation) bupropion hydrochloride (100 μM, CYP2B6 probe substrate, 20-minute incubation), and testosterone (200 μM, CYP3A4 probe substrate, 14-minute incubation) which were dissolved in KHB (37° C., pH 7.4, 0.5 mL/well). After the substrate incubation periods, the buffers were collected and stored at −80° C. until analyzed. Hepatocytes used for mRNA analysis were washed once in PBS (0.5 mL/well, 25° C., containing calcium and magnesium) and protocol-prepared b-DNA lysis buffer was added to each well (0.5 mL/well). The hepatocytes were lysed by gently pipetting the lysis buffer up and down five times, and the plates were stored at −80° C. until analysis.
P450 mRNA Analysis. CYP1A2, CYP2B6, and CYP3A4 mRNA content was determined with branched DNA (b-DNA) signal amplification technology using the Panomics Discover XL Kit with assays performed according to the manufacturer's instructions. b-DNA probe sets containing capture extender, label extender, and blocking probes for human CYP1A2, CYP2B6, CYP3A4, and 18S rRNA were purchased from Affymetrix Inc. Plate washing steps were performed on an Elx405 automated microplate washer (BioTek Instruments Inc., Winooski, Vt.), and luminescence was analyzed on a Luminoskan Ascent microplate luminometer (Thermo Lab Systems, Helsinki, Finland). P450 mRNA levels were normalized to the mRNA levels of the housekeeping gene 18S rRNA.
as §3

[1] = system: Cryopreserved human hepatocytes; experiment: Human Hepatocyte Intrinsic Clearance Assay; settings: for human hepatocyte clearance (comparison): comparison between Examples, in words
Description: (§4) Cryopreserved human hepatocytes pooled from 20 donors (Celsis-In Vitro Technologies, Baltimore, Md.) were used to determine the intrinsic clearance of the Example compounds. […] At 0, 5, 15, 30, 60 and 90 minutes, aliquots of incubation mixture were removed from the incubator, and quenched with acetonitrile containing 0.1% (v/v) formic acid and internal standard (7-hydroxy-4-trifluoromethylcoumarin). Samples were then centrifuged at 5700 rpm (6100 g) at 4° C. for 10 minutes. Supernatants were transferred to a sample plate, mixed with equal volume of water containing 0.1% formic acid, and analyzed using LC-MS/MS.
(§5) The LC-MS/MS system for sample analysis consisted of a reverse phase UHPLC (Shimadzu Model Nexera LC-30AD, Shimadzu Scientific Instruments, Inc, Columbia, Md.) interfaced with an API4000 triple quadruple mass spectrometer operating in negative ion mode (Applied Biosystems, Inc., Foster City, Calif.). Chromatographic separation was achieved using a Phenomenex Kinetex Luna C18 column (Phenomenex, Torrance, Calif.) (2×50 mm, 2.6 μm) maintained at 55° C. with a mobile phase flow rate of 1.2 mL/min. The mobile phase consisted of 0.1% formic acid in water (A) and 0.1% formic acid in acetonitrile (B).

[2] = Human Hepatocyte Intrinsic Clearance Assay; settings: human, cryopreserved human hepatocytes pooled from 20 donors
Description: as §4, §5

Row | Induction Assay Summary (CYP1A2, CYP2B6 or CYP3A4) | mRNA % of Positive Control (Donor One) (CYP3A4; 0.1 μM) [%] | mRNA % of Positive Control (Donor Three) (CYP3A4; 0.1 μM) [%] | mRNA % of Positive Control (Donor Two) (CYP3A4; 0.1 μM) [%] | mRNA % of Positive Control (Donor One) (CYP3A4; 1 μM) [%] | mRNA % of Positive Control (Donor Three) (CYP3A4; 1 μM) [%] | mRNA % of Positive Control (Donor Two) (CYP3A4; 1 μM) [%] | mRNA % of Positive Control (Donor One) (CYP3A4; 10 μM) [%] | mRNA % of Positive Control (Donor Three) (CYP3A4; 10 μM) [%] | mRNA % of Positive Control (Donor Two) (CYP3A4; 10 μM) [%] | hepatocyte CLint at 500 nM [2] [µL/min/1e6 cells] | CYP3A4 mRNA induction (CYP3A4) | mRNA % of Positive Control (one donor) (CYP3A4; 0.1 μM) [%] | mRNA % of Positive Control (one donor) (CYP3A4; 1 μM) [%] | mRNA % of Positive Control (one donor) (CYP3A4; 10 μM) [%] | Human hepatocyte CLint assay (μL/min/10^6 cells) ([1]; 500 nM, pooled human hepatocytes 1 million cells/mL) | Structure (SMILES) | human hepatocyte clearance (comparison) [1]
1 | None | 1.62 | 0.42 | 2.30 | 2.96 | 0.47 | 7.29 | 10.14 | 3.07 | 12.51 | 26 |  |  |  |  |  | CC(C)(C)S(=O)(=O)C[C@H](C1CC1)N1C(=O)[C@@](C)(CC(=O)O)C[C@H](c2cccc(Cl)c2)[C@H]1c1ccc(Cl)c(F)c1 [Example 4, 2-((3R,5R,6S)-1-((S)-2-(tert-Butylsulfonyl)-1-cyclopropylethyl)-6-(4-chloro-3-fluorophenyl)-5-(3-chlorophenyl)-3-methyl-2-oxopiperidin-3-yl)acetic acid] | higher human hepatocyte clearance than the compound of Example 1
2 | CYP3A4 | 1.71 | 0.15 | 4.95 | 17.15 | 3.21 | 10.38 | 37.77 | 37.60 | 45.78 | 28 | exhibit CYP3A4 mRNA induction |  |  |  |  | CC(C)(C)S(=O)(=O)C[C@H](C1CC1)N1C(=O)[C@@](C)(CC(=O)Nc2ccccc2)C[C@H](c2cccc(Cl)c2)[C@H]1c1ccc(Cl)cc1 [Example 3, 2-((3R,5R,6S)-1-((S)-2-(tert-Butylsulfonyl)-1-cyclopropylethyl)-5-(3-chlorophenyl)-6-(4-chlorophenyl)-3-methyl-2-oxopiperidin-3-yl)-N-phenylacetamide] | further increases
3 |  |  |  |  |  |  |  |  |  |  | 26 |  |  |  |  |  | CC(C)(C)S(=O)(=O)C[C@H](C1CC1)N1C(=O)[C@@](C)(CC(N)=O)C[C@H](c2cccc(Cl)c2)[C@H]1c1ccc(Cl)cc1 [Example 2, 2-((3R,5R,6S)-1-((S)-2-(tert-Butylsulfonyl)-1-cyclopropylethyl)-5-(3-chlorophenyl)-6-(4-chlorophenyl)-3-methyl-2-oxopiperidin-3-yl)acetamide] | hepatocyte clearance increases
4 | None |  |  |  |  |  |  |  |  |  | 1.45 | does not show CYP3A4 mRNA induction | −1.49 | 0.34 | 0.98 | 1.45 | COc1cc(NC(=O)C[C@@]2(C)C[C@H](c3cccc(Cl)c3)[C@@H](c3ccc(Cl)c(F)c3)N([C@H](CS(=O)(=O)C(C)(C)C)C3CC3)C2=O)ccc1C(=O)O [Example 5, 4-(2-((3R,5R,6S)-1-((S)-2-(tert-Butylsulfonyl)-1-cyclopropylethyl)-6-(4-chloro-3-fluorophenyl)-5-(3-chlorophenyl)-3-methyl-2-oxopiperidin-3-yl)acetamido)-2-methoxybenzoic acid] | lower human hepatocyte clearance than either of the compounds of Examples 1 or 4; also recorded: lower human hepatocyte clearance than any of Examples 1 to 4
